Source: ChEMBL document CHEMBL1201862, “PubChem BioAssay data set” (2004)
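In this assay, cells in 96-well plates receive the compound at five concentrations for 48 hours. Endpoints are linearly interpolated between the surrounding concentrations. GI50 = concentration required for 50% inhibition of growth.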 The source made the active and inactive calls. Cut-off read from the data, not from the text of the source: active = GI50 up to about 1.1 µM and inactive = higher.

Key:
Assay in all cases: inhibition of tumour cell growth, NCI panel, 48 h
SF-268 = system: SF-268
CCRF-CEM = system: CCRF-CEM
HT-29 = system: HT-29
OVCAR-5 = system: OVCAR-5
HCT-116 = system: HCT-116
M14 = system: M14
NCI-H23 = system: NCI-H23
NCI-H460 = system: NCI-H460
U-251 = system: U-251
HOP-92 = system: HOP-92
HL-60 = system: HL-60
A498 = system: A498
SN12C = system: SN12C
RXF 393 = system: RXF 393

Measured: GI50

CC(Cn1c2c3ccccc3ccc2c2oc(=O)c3ccccc3c21)N(C)C (stereo not given)
inactive: SF-268 > 100 µM | CCRF-CEM > 100 µM | HT-29 > 100 µM | OVCAR-5 > 100 µM | HCT-116 > 100 µM | M14 > 100 µM | NCI-H23 > 100 µM | NCI-H460 > 100 µM | U-251 > 100 µM | HOP-92 > 100 µM | HL-60 > 100 µM

O=C1c2ccccc2N2OC3(N4CCCC4)CCCCC3C12c1ccccc1 (stereo not given)
inactive: SF-268 16.6 µM | A498 > 100 µM | CCRF-CEM 18.7 µM | HT-29 21.8 µM | SN12C 16.9 µM | RXF 393 17.5 µM | HCT-116 14.4 µM | M14 17.6 µM | NCI-H23 20.1 µM | U-251 28.1 µM | HOP-92 16.1 µM | HL-60 19.1 µM

O=c1c2cc3c(cc2c2cccc4c2n1CCC4)OCO3
inactive: CCRF-CEM 89.3 µM | HT-29 51.1 µM | SN12C 36.8 µM | RXF 393 28.4 µM | OVCAR-5 58.7 µM | HCT-116 23.4 µM | M14 46.9 µM | NCI-H23 22.4 µM | NCI-H460 37.1 µM | U-251 23.1 µM | HOP-92 55.5 µM | HL-60 53.8 µM

COc1ccc(C(Cc2cc(OC)c(OC)c(OC)c2)C(=O)O)cc1 (stereo not given)
inactive: SF-268 81.8 µM | A498 56.5 µM | CCRF-CEM 46 µM | HT-29 37.6 µM | SN12C > 100 µM | OVCAR-5 > 100 µM | HCT-116 41.5 µM | M14 44.6 µM | NCI-H23 97.9 µM | NCI-H460 45.7 µM | U-251 > 100 µM

CN1CCc2ccccc2C(C(=O)c2ccc3c(c2)OCO3)C1=O (stereo not given)
inactive: SF-268 > 100 µM | A498 > 100 µM | CCRF-CEM > 100 µM | HT-29 > 100 µM | SN12C > 100 µM | RXF 393 > 100 µM | HCT-116 > 100 µM | M14 > 100 µM | NCI-H23 96.2 µM | NCI-H460 > 100 µM | U-251 > 100 µM | HOP-92 > 100 µM | HL-60 > 100 µM

COC(=O)/C=C1/CCC(C(=O)OC)N1 (stereo not given)
inactive: SF-268 > 100 µM | A498 > 100 µM | CCRF-CEM > 100 µM | SN12C > 100 µM | RXF 393 > 100 µM | HCT-116 > 100 µM | M14 > 100 µM | NCI-H23 > 100 µM | NCI-H460 > 100 µM | U-251 > 100 µM | HOP-92 > 100 µM | HL-60 > 100 µM

COc1ccc(S(=O)(=O)N/N=C/CN2C(=O)c3ccccc3C2=O)cc1
inactive: A498 > 100 µM | CCRF-CEM > 100 µM | HT-29 > 100 µM | SN12C > 100 µM | RXF 393 > 100 µM | M14 > 100 µM | NCI-H23 > 100 µM | NCI-H460 > 100 µM | U-251 > 100 µM | HL-60 > 100 µM

CCOC(=O)C(=O)Nc1nc2ccc(C)cc2s1
inactive: SF-268 > 100 µM | A498 > 100 µM | CCRF-CEM > 100 µM | HT-29 > 100 µM | SN12C > 100 µM | OVCAR-5 > 100 µM | HCT-116 > 100 µM | M14 > 100 µM | NCI-H23 > 100 µM | NCI-H460 > 100 µM | U-251 > 100 µM | HOP-92 > 100 µM

COC(=O)C1=C(c2cc(OC)c(OC)c(OC)c2)O[C@H](c2ccc3c(c2)OCO3)[C@H]1COC(C)=O
inactive: A498 21.4 µM | CCRF-CEM 40.2 µM | HT-29 18.6 µM | SN12C 24.7 µM | OVCAR-5 48.6 µM | M14 15.3 µM | NCI-H23 19.1 µM | NCI-H460 30.5 µM | U-251 24.1 µM | HOP-92 7.24 µM | HL-60 15.6 µM

Cc1cc(Br)ccc1NC1=CC(=O)C(=O)c2ccccc21
inactive: SF-268 47.4 µM | A498 86.7 µM | CCRF-CEM 35.1 µM | HT-29 51.2 µM | SN12C 60.1 µM | RXF 393 30.5 µM | OVCAR-5 70.8 µM | HCT-116 52.7 µM | M14 52.1 µM | NCI-H23 10.9 µM | NCI-H460 27.9 µM | U-251 26.4 µM | HL-60 13.6 µM

CC(=O)OCc1c(O)nc2c(c1O)-c1ccccc1CC2
inactive: SF-268 77.1 µM | CCRF-CEM 67.1 µM | HT-29 113 µM | SN12C 62.2 µM | RXF 393 54.6 µM | HCT-116 58.2 µM | NCI-H23 76.6 µM | NCI-H460 77.8 µM | U-251 > 350 µM | HOP-92 78.5 µM | HL-60 84.7 µM

O=C1C=C(Nc2ccccc2C(=O)c2ccccc2)c2ccccc2C1=O
inactive: SF-268 > 100 µM | A498 > 100 µM | HT-29 > 100 µM | SN12C 42.8 µM | RXF 393 > 100 µM | OVCAR-5 > 100 µM | HCT-116 > 100 µM | M14 > 100 µM | NCI-H23 > 100 µM | NCI-H460 71 µM | U-251 70.8 µM | HOP-92 4.06 µM

CCOC(=O)NNC(=O)NC12CC3CC(CC(C3)C1)C2
inactive: SF-268 > 100 µM | A498 > 100 µM | CCRF-CEM > 100 µM | HT-29 > 100 µM | SN12C > 100 µM | RXF 393 > 100 µM | OVCAR-5 > 100 µM | HCT-116 > 100 µM | M14 > 100 µM | NCI-H23 > 100 µM | NCI-H460 > 100 µM | U-251 > 100 µM | HOP-92 > 100 µM

COc1cc2noc(-c3ccccc3)c2cc1OC
inactive: SF-268 54 µM | A498 20.2 µM | CCRF-CEM 42.5 µM | HT-29 36.6 µM | SN12C 34.8 µM | RXF 393 23.8 µM | OVCAR-5 29.2 µM | HCT-116 60.1 µM | M14 55.6 µM | NCI-H460 42.4 µM | U-251 26.7 µM | HOP-92 44.1 µM | HL-60 40.1 µM

COc1cc(/C=C2\CCc3ccccc3C2=O)cc(OC)c1OC
inactive: SF-268 16.4 µM | CCRF-CEM 4.89 µM | HT-29 17.5 µM | SN12C 18 µM | RXF 393 14.6 µM | OVCAR-5 14.4 µM | HCT-116 14.1 µM | M14 16.2 µM | NCI-H23 15.7 µM | NCI-H460 16.9 µM | U-251 16.1 µM | HOP-92 11.1 µM | HL-60 10.7 µM

Nc1ncnc2c1ncn2CCCC(c1ccccc1)P(=O)(O)O (stereo not given)
inactive: SF-268 > 100 µM | A498 63 µM | HT-29 > 100 µM | SN12C > 100 µM | RXF 393 > 100 µM | OVCAR-5 > 100 µM | HCT-116 > 100 µM | NCI-H23 > 100 µM | NCI-H460 > 100 µM | U-251 > 100 µM | HL-60 > 100 µM
